The results in this text go back to patent US20200407370A1, “PEPTIDYLARGININE DEIMINASE INHIBITOR AND USE THEREOF” (Nanjing Transthera Biosciences Co., Ltd., priority 2018, published 2020).

The target in series [1] is T1, Peptidylarginine deiminase 4 (PAD4) (Homo sapiens, UniProt Q9UM07).
T1 construct: purchased Cayman 10500
The series is described as follows: Assay of enzyme-inhibiting activity (PAD4, FAM-AcH4(1-5) peptide, Caliper detection). It counts as biochemical. Conditions: 10 nM PAD4, 5 μM peptide, 0.1 mM Ca2+, pH 8.0. The protocol:
Experimental Example 1: Assay of Enzyme-Inhibiting Activity of Compound
Sample: The compound disclosed herein prepared according to exemplary methods.
Peptidylarginine deiminase 4 (PAD4): Cayman, Cat. No. 10500, Lot. No. 0519694;
Carboxyfluorescein-labeled peptide (Peptide FAM-AcH4 (1-5)): GL Biochem, Cat. No. 0200046, Lot. No. P161110-TL545976;
An appropriate amount of the compound to be assayed was dissolved in DMSO to 10 mM. An appropriate amount of 10 mM mother liquor of the compound to be assayed was diluted to 1.5 mM with DMSO, and the solution was then serially diluted 3-fold with DMSO to give 50× concentrations of gradient compound solutions. Finally, 10-fold dilution was carried out with reaction buffer (an aqueous solution of 100 mM HEPES (2-[4-(2-hydroxyethyl)piperazin-1-yl]ethanesulfonic acid) containing 0.01% v/v Triton, pH 8.0) to give 5× concentrations of gradient compound solutions (150 μM, 50 μM, 16.667 μM, 5.556 μM, 1.852 μM, 0.617 μM, 0.206 μM, 0.069 μM, 0.023 μM, and 0.008 μM).
1) Reaction buffer: aqueous solution of 100 mM HEPES (2-[4-(2-hydroxyethyl)piperazin-1-yl]ethanesulfonic acid) containing 0.01% v/v Triton, pH 8.0;
2) Stop solution: aqueous solution of 100 mM HEPES (2-[4-(2-hydroxyethyl)piperazin-1-yl]ethanesulfonic acid) containing 0.015% w/v Brij-35, 0.2% v/v Coating Reagent (coating solution) #3 (PE, part no. 760050) and 50 mM EDTA, pH 8.0;
3) 2.5× enzyme solution: An appropriate amount of PAD4 was diluted to 2.5× (final concentration: 10 nM) with reaction buffer;
4) 2.5× polypeptide solution: An appropriate amount of carboxyfluorescein -labeled peptide (FAM-AcH4(1-5) peptide) and CaCl2) solution was diluted to 2.5× (the final concentration of polypeptide: 5 μM, the final concentration of Ca^2+: 0.1 mM) with reaction buffer.
5 μL of 5× compound solutions or solvents with different concentrations were added to a 384-well plate, 10 μL of 2.5× enzyme solution was then added, and the plate was incubated at room temperature for 10 min. 10 μL of 2.5× polypeptide solution was then added to each well, and the plate was incubated at 28° C. for a certain period of time. 25 μL of stop solution was added to stop reaction. Caliper was used for detection. The inhibition rate was calculated according to the following formula:
Inhibition percentage=(max−transformation)/(max−min)*100.
“max” denotes DMSO control; and “min” denotes low control.

Series [2] in a line: Liver microsomal stability in human. The class given is in vitro ADME. Conditions: human liver microsomes, 0.5 mg protein/mL, 1 μM compound, 37° C. The protocol:
(§1) Experimental Example 2: Evaluation on Liver Microsomal Stability of the Compound Disclosed Herein in Human/Canine
(§2) An appropriate amount of the compound was precisely weighed and dissolved in DMSO to prepare a 5.0 mM stock solution. 5.0 mM stock solution was diluted to 1.0 mM with DMSO, and then diluted with water to 10 μM, serving as a compound working solution for later use (DMSO content in the reaction system: 0.1% v/v).
(§3) • (1) The liver microsomes (20 mg protein/mL) were taken from a −80° C. refrigerator, pre-incubated on a 37° C. water bath thermostatic oscillator for 3 min, and thawed for use. • (2) A mixed incubation system solution (without compounds or β-NADPH) was prepared according to the proportion of “composition of the incubation system” described above and pre-incubated on a 37° C. water bath thermostatic oscillator for 2 min. • (3) Control group (without β-NADPH): 30 μL of water and 30 μL of compound working solution (10 μM) were added to 240 μL of the mixed incubation system solution in step (2), and the mixture was vortexed for 30 s and mixed. The total volume of the mixture was 300 μL. The sample was duplicated. The reaction solution was placed on a 37° C. water bath thermostatic oscillator for incubation, and timing was started. Samples were collected at 0 min and 60 min. • (4) Sample group: 70 μL of β-NADPH solution (10 mM) and 70 μL of compound working solution (10 μM) were added to 560 μL of the mixed incubation system solution in step (2), and the total volume of the mixture was 700 μL. The mixture was vortexed for 30 s and mixed. The sample was duplicated. The reaction solution was placed on a 37° C. water bath thermostatic oscillator for incubation, and timing was started. Samples were collected at 0 min, 5 min, 10 min, 20 min, 30 min and 60 min after timing. • (5) The reaction solution was vortexed for 3 min, and centrifuged at 12,000 rpm for 5 min. • (6) 50 μL of the supernatant was added to 150 μL of water, and the resulting solution was vortexed and mixed before LC/MS/MS analysis.
(§4) The half-life (t1/2) and clearance (Cl) were calculated using the following first-order kinetic formula:
(§5) Vd=1/protein content in liver microsomes
(§6) Note: k denotes the slope of the logarithm of the remaining amount of a compound vs. time, Vd denotes apparent volume of distribution, C0 denotes drug concentration at 0 h, Ct denotes drug concentration at time t, t denotes time, e denotes natural number, and Clint denotes intrinsic clearance.
Background: Liver microsomes are a subcellular fraction often used to study metabolism.

Series [3] is described as follows: Liver microsomal stability in canine. The class given is in vitro ADME. Conditions: dog; canine liver microsomes, 0.5 mg protein/mL, 1 μM compound, 37° C. The protocol: as §1, §2, §3, §4, §5, §6
Series [4] can be described thus: Pharmacokinetics (PK) of the compound in rats. The class given is in vivo. Conditions: rat, plasma, SD rats. On the procedure:
Experimental Example 3: Pharmacokinetics (PK) of the Compound in Rats
The test compound was dissolved in a mixture of 5% v/v DMSO+20% v/v (30% v/v solutol (polyethylene glycol-15 hydroxystearate purchased from BASF, batch no. 84773247G0))+75% v/v brine to prepare a solution, which was then administered to SD rats by oral gavage at a dose of 5.0 mg/kg. Blood samples were collected at 15 min, 30 min, 1 h, 2 h, 4 h, 6 h, 8 h and 24 h.
The test compound was dissolved in a mixture of 5% v/v DMSO+20% v/v (30% v/v solutol)+75% v/v brine to prepare a solution, which was administered to SD rats by intravenous bolus at a dose of 1 mg/kg. Blood samples were collected at 5 min, 15 min, 30 min, 1 h, 2 h, 4 h, 6 h, 8 h and 24 h.
The animals were fixed, with tails warmed in a water bath 10 min before each sampling time point. About 100 μL of blood was collected via the tail vein, and the blood samples were collected in anticoagulation tubes containing EDTA-K2. The blood samples were centrifuged at 8,000 rpm for 6 min at 4° C. to give plasma samples within 30 min after collection. The plasma samples were stored in a refrigerator at −80° C. before test.
The sample was taken out from the −80° C. refrigerator, and vortexed for 5 min after naturally thawed at room temperature. 20 μL of plasma sample was pipetted into a 1.5 mL centrifuge tube, and 200 μL of 100 ng/mL internal standard working solution (a solution of tolbutamide in methanol) was added. The resulting mixture was mixed, vortexed for 5 min, and then centrifuged at 12,000 rpm for 5 min. 50 μL of the supernatant was pipetted into a 96-well plate with 150 μL of water per well, and the plate was vortexed for 5 min before LC-MS/MS analysis.
The concentration was calculated by Analyst 1.6.3 from AB Sciex. Parameters such as mean, standard deviation and coefficient of variation (excluding those output directly by Analyst 1.6.3) were calculated by Microsoft Excel. PK parameters were calculated by Pharsight Phoenix 6.1 software NCA (Tmax was in median).

The structures appear in SMILES notation. pIC50: −log10 of the molar value. Read-outs that look alike come from different tables or passages of the source.

T1 sequence (Q9UM07 whole entry): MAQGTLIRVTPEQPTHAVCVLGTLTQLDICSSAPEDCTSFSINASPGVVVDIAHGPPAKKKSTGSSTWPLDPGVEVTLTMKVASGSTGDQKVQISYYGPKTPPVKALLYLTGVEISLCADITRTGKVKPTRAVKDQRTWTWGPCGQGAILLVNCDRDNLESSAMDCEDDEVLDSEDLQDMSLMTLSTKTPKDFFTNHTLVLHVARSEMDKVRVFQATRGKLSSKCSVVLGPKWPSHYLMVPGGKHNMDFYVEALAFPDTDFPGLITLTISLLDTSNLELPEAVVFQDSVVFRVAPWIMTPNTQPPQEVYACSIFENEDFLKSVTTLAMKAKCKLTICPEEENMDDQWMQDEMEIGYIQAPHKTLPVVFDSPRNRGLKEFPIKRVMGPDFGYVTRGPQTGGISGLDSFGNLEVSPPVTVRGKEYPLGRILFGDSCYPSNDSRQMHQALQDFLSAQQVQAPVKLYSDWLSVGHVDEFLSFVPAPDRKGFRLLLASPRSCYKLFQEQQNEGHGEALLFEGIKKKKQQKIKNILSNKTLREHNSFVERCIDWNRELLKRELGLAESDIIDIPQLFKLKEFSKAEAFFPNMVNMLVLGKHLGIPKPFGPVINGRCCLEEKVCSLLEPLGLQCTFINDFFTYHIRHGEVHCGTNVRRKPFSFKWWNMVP

One may read the pIC50 as the IC50 on a negative log10 scale, so that one unit is a factor of ten. Low values mean a large IC50, high ones a small IC50. A word on the microsomal CLint: it is the capacity of the preparation to metabolise the compound, expressed as a volume cleared per time. In series [1], `CCn1c(-c2nc3cc(C(=O)N4CCC[C@@H](N)C4)cc(OC)c3n2C)cc2ccoc21` [Compound 4, (R)-(3-aminopiperidin-1-yl)(2-(6-ethyl-6H-furo[2,3-b]pyrrol-5-yl)-7-methoxy-1-methyl-1H-benzo[d]imidazol-5-yl)methanone] gave a negative-log IC50 (pIC50) of 6.46. Also, in series [2], the half-life at 1 μM was 11.6 h and the microsomal CLint at 1 μM was found to be 2 µL/min/mg. Moreover, in series [3], the half-life at 1 μM is 5.5 h.
The compound `COc1cc(C(=O)N2CCC[C@@H](N)C2)cc2nc(-c3cc4ccoc4n3CC3CC3)n(C)c12` [Compound 24, (R)-(3-aminopiperidin-1-yl)(2-(6-(cyclopropylmethyl)-6H-furo[2,3-b]pyrrol-5-yl)-7-methoxy-1-methyl-1H-benzo[d]imidazol-5-yl)methanone] had a pIC50 in series [1] of 7.27.
As a reminder, the bioavailability is dose-corrected exposure relative to a reference, in per cent. Broadly, the clearance is the rate of elimination divided by the concentration. In series [1], `CCn1c(-c2nc3cc(C(=O)N4CCC[C@@H](N)C4)cc(OC)c3n2C)cc2cccnc21` [Compound GSK199, reference compound] had a pIC50 of 6.85. The half-life at 1 μM in series [2] was 4.45 h; in series [3], 12.8 h. The microsomal CLint at 1 μM in series [2] is 5.2 µL/min/mg; in series [3], 1.8 µL/min/mg. In series [4] (IV 1 mg/kg, PO 5 mg/kg, n = 3, read-out: F (absolute bioavailability)), the bioavailability is 33.1%. In addition, the AUC(0-t) is 330 ng·h/mL in series [4] (IV 1 mg/kg, n = 3, read-out: AUClast iv (area under concentration-time curve 0-24 h)) and 496 ng·h/mL in series [4] (PO 5 mg/kg, n = 3, read-out: AUClast po (area under concentration-time curve 0-24 h)). Further, the clearance in series [4] (IV 1 mg/kg, n = 3, read-out: Cl_obs iv (clearance) (converted)) was 48.2 mL/min/kg. Also, the Vd in series [4] (IV 1 mg/kg, n = 3, read-out: Vz_obs iv (apparent volume of distribution)) stood at 6.75 L/kg. Also, the half-life was 1.63 h in series [4] (IV 1 mg/kg, n = 3, read-out: tz1/2 iv (terminal half-life) (converted)) and 2.23 h in series [4] (PO 5 mg/kg, n = 3, read-out: tz1/2 po (terminal half-life) (converted)). Moreover, in series [4] (PO 5 mg/kg, n = 3, median, read-out: Tmax po (time to maximum plasma concentration)), the Tmax is 4 h.
